In patent US12448392B2, “Spiropiperidine derivatives” (89BIO LTD, priority 2016, dated 2025):
pIC50: −log10 of the molar value. Structures can show the parent of a compound that is named as a salt.

These compounds were tested against T1, recombinant human baculovirus-expressed GST-tagged FASN (Homo sapiens, UniProt P49327) (assay: biochemical). Conditions: not given.
T1 construct: GST
T1 sequence (P49327 whole entry): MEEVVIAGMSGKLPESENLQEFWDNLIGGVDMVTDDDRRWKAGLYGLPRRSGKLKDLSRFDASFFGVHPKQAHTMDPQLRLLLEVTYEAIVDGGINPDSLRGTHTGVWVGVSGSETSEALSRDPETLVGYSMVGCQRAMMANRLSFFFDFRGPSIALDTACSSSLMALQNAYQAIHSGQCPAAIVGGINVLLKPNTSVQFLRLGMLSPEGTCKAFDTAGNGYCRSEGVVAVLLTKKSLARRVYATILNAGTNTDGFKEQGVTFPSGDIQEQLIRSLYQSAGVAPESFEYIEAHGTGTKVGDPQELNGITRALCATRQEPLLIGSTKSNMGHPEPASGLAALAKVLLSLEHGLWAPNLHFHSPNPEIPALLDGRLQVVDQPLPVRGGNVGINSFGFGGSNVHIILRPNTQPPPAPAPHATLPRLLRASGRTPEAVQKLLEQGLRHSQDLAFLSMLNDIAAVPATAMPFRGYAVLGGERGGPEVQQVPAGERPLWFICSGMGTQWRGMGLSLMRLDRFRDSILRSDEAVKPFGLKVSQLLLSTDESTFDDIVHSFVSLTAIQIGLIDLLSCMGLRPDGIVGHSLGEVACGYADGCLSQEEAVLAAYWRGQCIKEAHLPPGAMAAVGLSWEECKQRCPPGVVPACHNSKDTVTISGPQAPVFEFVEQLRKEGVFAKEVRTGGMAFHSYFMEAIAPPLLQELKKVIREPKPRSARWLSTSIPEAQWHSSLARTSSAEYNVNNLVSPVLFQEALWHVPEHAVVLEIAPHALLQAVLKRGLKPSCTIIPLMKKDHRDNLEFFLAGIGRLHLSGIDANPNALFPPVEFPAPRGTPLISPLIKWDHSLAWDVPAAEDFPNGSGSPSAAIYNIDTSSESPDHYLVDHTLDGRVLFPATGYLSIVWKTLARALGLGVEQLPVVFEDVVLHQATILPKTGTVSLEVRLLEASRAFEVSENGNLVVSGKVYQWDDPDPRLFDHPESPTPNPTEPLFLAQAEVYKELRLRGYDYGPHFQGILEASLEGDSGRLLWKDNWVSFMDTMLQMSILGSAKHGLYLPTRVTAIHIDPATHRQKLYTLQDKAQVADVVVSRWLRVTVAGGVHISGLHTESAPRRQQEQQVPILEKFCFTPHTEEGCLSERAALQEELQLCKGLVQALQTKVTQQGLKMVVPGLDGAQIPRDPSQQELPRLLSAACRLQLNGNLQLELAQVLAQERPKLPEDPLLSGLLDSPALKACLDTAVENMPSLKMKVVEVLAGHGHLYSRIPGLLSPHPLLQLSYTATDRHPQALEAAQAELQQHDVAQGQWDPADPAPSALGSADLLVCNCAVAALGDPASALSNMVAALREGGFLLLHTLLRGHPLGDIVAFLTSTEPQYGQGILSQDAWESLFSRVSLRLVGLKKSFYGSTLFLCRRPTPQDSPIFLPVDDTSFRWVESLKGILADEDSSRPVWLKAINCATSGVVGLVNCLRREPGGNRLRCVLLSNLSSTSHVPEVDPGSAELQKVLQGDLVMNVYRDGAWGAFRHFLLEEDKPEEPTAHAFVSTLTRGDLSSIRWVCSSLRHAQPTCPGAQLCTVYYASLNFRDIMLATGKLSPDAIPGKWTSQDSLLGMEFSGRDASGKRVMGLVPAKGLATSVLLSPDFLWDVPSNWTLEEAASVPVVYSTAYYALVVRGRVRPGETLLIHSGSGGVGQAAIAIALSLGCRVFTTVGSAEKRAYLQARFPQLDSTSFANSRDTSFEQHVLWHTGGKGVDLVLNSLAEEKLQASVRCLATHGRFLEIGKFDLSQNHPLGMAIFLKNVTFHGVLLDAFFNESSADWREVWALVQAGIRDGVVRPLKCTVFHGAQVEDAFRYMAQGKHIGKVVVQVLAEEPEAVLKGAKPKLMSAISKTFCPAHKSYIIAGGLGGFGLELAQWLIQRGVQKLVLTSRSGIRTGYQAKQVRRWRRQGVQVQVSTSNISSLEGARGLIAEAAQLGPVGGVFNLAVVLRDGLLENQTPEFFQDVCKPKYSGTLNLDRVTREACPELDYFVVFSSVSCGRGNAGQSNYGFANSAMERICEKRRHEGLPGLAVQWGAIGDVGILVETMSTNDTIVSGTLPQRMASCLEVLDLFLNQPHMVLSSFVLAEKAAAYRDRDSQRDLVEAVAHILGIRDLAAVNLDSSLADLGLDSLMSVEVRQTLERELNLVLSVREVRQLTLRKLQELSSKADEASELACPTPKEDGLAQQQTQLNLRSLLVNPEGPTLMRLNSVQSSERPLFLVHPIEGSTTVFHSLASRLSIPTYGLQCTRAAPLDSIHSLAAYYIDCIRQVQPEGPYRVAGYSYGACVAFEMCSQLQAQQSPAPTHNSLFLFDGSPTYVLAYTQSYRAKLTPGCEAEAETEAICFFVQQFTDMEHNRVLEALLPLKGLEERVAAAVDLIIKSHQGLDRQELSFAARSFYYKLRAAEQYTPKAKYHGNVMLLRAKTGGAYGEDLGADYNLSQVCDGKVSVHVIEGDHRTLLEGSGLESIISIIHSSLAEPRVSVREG

SMILES | pIC50
CCC(=O)N1CCC2(CC1)OCc1cc(-c3cnc4ccccc4c3)ccc1O2 [Example 33, 1-[6-(3-Quinolyl)spiro[4H-1,3-benzodioxine-2,4′-piperidine]-1′-yl]propan-1-one] | 7.00 to 9.00
CONC(=O)N1CCC2(CC1)OCc1cc(-c3ccc4cnc(C)cc4c3)ccc1O2 [Example 205, N-Methoxy-6-(3-methyl-6-isoquinolyl)spiro[4H-1,3-benzodioxine-2,4′-piperidine]-1′-carboxamide] | 7.00 to 9.00
O=C([C@H]1CCCO1)N1CCC2(CC1)OCc1cc(-c3ccccn3)ccc1O2 [Example 220, [6-(2-Pyridyl)spiro[4H-1,3-benzodioxine-2,4′-piperidine]-1′-yl]-[(2R)-tetrahydrofuran-2-yl]methanone, HCl] | 6.00 to 7.00
O=C(C1CC1)N1CCC2(CC1)OCc1cc(-c3ccncc3)ccc1O2 [Example 230, Cyclopropyl-[6-(4-pyridyl)spiro[4H-1,3-benzodioxine-2,4′-piperidine]-1′-yl]-methanone, HCl] | 5.00 to 6.00
CCOC(=O)N1CCC2(CC1)OCc1cc(-c3cnc4cccnc4c3)ccc1O2 [Example 35, Ethyl 6-(1,5-naphthyridin-3-yl)spiro[4H-1,3-benzodioxine-2,4′-piperidine]-1′-carboxylate] | 5.00 to 6.00
Cc1c(-c2ccc3c(c2)COC2(CCN(C(=O)[C@H]4CCCO4)CC2)O3)cnc2ccccc12 [Example 51] | 7.00 to 9.00
CCONC(=O)N1CCC2(CC1)OCCc1cc(-c3ccc4cccnc4c3C)ccc1O2 [Example 79, N-Ethoxy-7-(8-methyl-7-quinolyl)spiro[4,5-dihydro-1,3-benzodioxepine-2,4′-piperidine]-1′-carboxamide] | 7.00 to 9.00
Cc1c(-c2ccc3c(c2)COC2(CCN(C(=O)NOC(C)C)CC2)O3)ccc2cccnc12 [Example 123, N-Isopropoxy-6-(8-methyl-7-quinolyl)spiro[4H-1,3-benzodioxine-2,4′-piperidine]-1′-carboxamide] | 7.00 to 9.00
CONC(=O)N1CCC2(CC1)OCc1cc(-c3ccc4ccnn4c3C)ccc1O2 [Example 128, N-Methoxy-6-(7-methylpyrazolo[1,5-a]pyridin-6-yl)spiro[4H-1,3-benzodioxine-2,4′-piperidine]-1′-carboxamide] | 7.00 to 9.00
O=C(C1CC1)N1CCC2(CC1)OCc1cc(-c3cnc4cccnc4c3)ccc1O2 [Example 37, Cyclopropyl-[6-(1,5-naphthyridin-3-yl)spiro[4H-1,3-benzodioxine-2,4′-piperidine]-1′-yl]methanone] | 5.00 to 6.00
CC(C)(C)OC(=O)N1CCC2(CC1)OCc1cc(-c3cnc4sccc4c3)ccc1O2 [Example 84, tert-Butyl 6-thieno[2,3-b]pyridin-5-ylspiro[4H-1,3-benzodioxine-2,4′-piperidine]-1′-carboxylate] | 5.00 to 6.00
CCNC(=O)N1CCC2(CC1)OCc1cc(-c3ccc4c(C)nccc4c3)ccc1O2 [Example 197, N-ethyl-6-(1-methyl-6-isoquinolyl)spiro[4H-1,3-benzodioxine-2,4′-piperidine]-1′-carboxamide] | 7.00 to 9.00
O=C(NO)N1CCC2(CC1)OCc1cc(-c3cc4ccccc4cn3)ccc1O2 [Example 150, 6-(3-Isoquinolyl)spiro[4H-1,3-benzodioxine-2,4′-piperidine]-1′-carbohydroxamic acid] | 5.00 to 6.00
CCONC(=O)N1CCC2(CC1)OCc1cc(-c3ccc4cnc(C)cc4c3)ccc1O2 [Example 203, N-Ethoxy-6-(3-methyl-6-isoquinolyl)spiro[4H-1,3-benzodioxine-2,4′-piperidine]-1′-carboxamide] | 7.00 to 9.00
Cc1c(-c2ccc3c(c2)COC2(CCN(C(N)=O)CC2)O3)cnc2ccccc12 [Example 132, 6-(4-Methyl-3-quinolyl)spiro[4H-1,3-benzodioxine-2,4′-piperidine]-1′-carboxamide] | 6.00 to 7.00
CCONC(=O)N1CCC2(CC1)OCc1cc(-c3ccc4cccnc4c3C)ccc1O2 [Example 121, N-Ethoxy-6-(8-methyl-7-quinolyl)spiro[4H-1,3-benzodioxine-2,4′-piperidine]-1′-carboxamide] | 7.00 to 9.00
CCOC(=O)N1CCC2(CC1)OCc1cc(-c3cnc4ccccc4c3C)ccc1O2 [Example 138, Ethyl 6-(4-methyl-3-quinolyl)spiro[4H-1,3-benzodioxine-2,4′-piperidine]-1′-carboxylate] | 6.00 to 7.00

Same assay, conditions: 5 nM FASN, 150 μM NADPH, 10 μM acetyl-CoA, 25 μM malonyl-CoA, 90 minutes incubation; read-out: IC50 data for Compounds of Formula I, Activity

SMILES | pIC50
CCC(=O)N1CCC2(CCc3cc(-c4cnc5ccccc5c4)ccc3O2)CC1 [Example 47, 1-[6-(3-Quinolyl)spiro[chromane-2,4′-piperidine]-1′-yl]propan-1-one] | 7.00 to 9.00
CONC(=O)N1CCC2(CCc3cc(-c4ccc5cccnc5c4Cl)ccc3O2)CC1 [Example 70, 6-(8-chloro-7-quinolyl)-N-methoxy-spiro[chromane-2,4′-piperidine]-1′-carboxamide] | 7.00 to 9.00
Cc1nccc2cc(-c3ccc4c(c3)CCC3(CCN(C(N)=O)CC3)O4)ccc12 [Example 183, 6-(1-Methyl-6-isoquinolyl)spiro[chromane-2,4′-piperidine]-1′-carboxamide] | 6.00 to 7.00
COC(=O)N1CCC2(CC1)CC(=O)c1cc(-c3cnc4ccccc4c3)ccc1O2 [Example 39, Methyl 4-oxo-6-(3-quinolyl)spiro[chromane-2,4′-piperidine]-1′-carboxylate] | 5.00 to 6.00
Cc1nccc2cc(-c3ccc4c(c3F)CCC3(CCN(C(N)=O)CC3)O4)ccc12 [Example 239, 5-Fluoro-6-(1-methyl-6-isoquinolyl)spiro[chromane-2,4′-piperidine]-1′carboxamide] | 5.00 to 6.00
CONC(=O)N1CCC2(CC1)Cc1cc(-c3ccc4cccnc4c3OC)ccc1O2 [Example 166, N-Methoxy-5-(8-methoxy-7-quinolyl)spiro[3H-benzofuran-2,4′-piperidine]-1′-carboxamide] | 5.00 to 6.00
CCC(=O)N1CCC2(CC1)CC(=O)c1cc(-c3cnc4ccccc4c3)ccc1O2 [Example 38, 1′-Propanoyl-6-(3-quinolyl)spiro[chromane-2,4′-piperidine]-4-one] | 6.00 to 7.00
Cc1nccc2cc(-c3ccc4c(c3)CCC3(CCN(C(=O)C5CC5)CC3)O4)ccc12 [Example 25, Cyclopropyl-[6-(1-methyl-6-isoquinolyl)spiro[chromane-2,4′-piperidine]-1′-yl]methanone] | 6.00 to 7.00
CCONC(=O)N1CCC2(CC1)Cc1cc(-c3cnc4ccccc4c3C)ccc1O2 [Example 158, N-ethoxy-5-(4-methyl-3-quinolyl)spiro[3H-benzofuran-2,4′-piperidine]-1′-carboxamide] | 5.00 to 6.00
Cc1cc(-c2ccc3c(c2)CCC2(CCN(C(=O)C4CC4)CC2)O3)cc2cccnc12 [Example 18, Cyclopropyl-[6-(8-methyl-6-quinolyl)spiro[chromane-2,4′-piperidine]-1′-yl]methanone HCl] | 6.00 to 7.00
CC(=O)OCC(=O)N1CCC2(CCc3cc(-c4ccc5cccnc5c4Cl)ccc3O2)CC1 [Example 64, [2-[6-(8-chloro-7-quinolyl)spiro[chromane-2,4′-piperidine]-1′-yl]-2-oxo-ethyl]acetate] | 6.00 to 7.00
NC(=O)N1CCC2(CCc3cc(-c4ccc5ncsc5c4)ccc3O2)CC1 [Example 74, 6-(1,3-benzothiazol-6-yl)spiro[chromane-2,4′-piperidine]-1′-carboxamide] | 5.00 to 6.00
Cc1c(-c2ccc3c(c2)CC2(CCN(C(N)=O)CC2)O3)cnc2ccccc12 [Example 159, 5-(4-Methyl-3-quinolyl)spiro[3H-benzofuran-2,4′-piperidine]-1′-carboxamide] | 5.00 to 6.00
NC(=O)N1CCC2(CCc3cc(-c4ccc5[nH]ccc5c4)ccc3O2)CC1 [Example 76, 6-(1H-Indol-5-yl)spiro[chromane-2,4′-piperidine]-1′-carboxamide] | 6.00 to 7.00
CCNC(=O)N1CCC2(CC1)Cc1cc(-c3ccc4cccnc4c3OC)ccc1O2 [Example 163, N-Ethyl-5-(8-methoxy-7-quinolyl)spiro[3H-benzofuran-2,4′-piperidine]-1′-carboxamide] | 5.00 to 6.00
O=C([C@H]1CCCO1)N1CCC2(CCc3cc(-c4ccncc4)ccc3O2)CC1 [Example 228, [6-(4-Pyridyl)spiro[chromane-2,4′-piperidine]-1′-yl]-[(2R)-tetrahydrofuran-2-yl]methanone, HCl] | 6.00 to 7.00
CCONC(=O)N1CCC2(CCc3cc(-c4ccc5nccn5c4C)ccc3O2)CC1 [Example 107, N-Ethoxy-6-(5-methylimidazo[1,2-a]pyridin-6-yl)spiro[chromane-2,4′-piperidine]-1′-carboxamide] | 7.00 to 9.00
CONC(=O)N1CCC2(CC1)Cc1cc(-c3cnc4ccccc4c3C)ccc1O2 [Example 157, N-Methoxy-5-(4-methyl-3-quinolyl)spiro[3H-benzofuran-2,4′-piperidine]-1′-carboxamide] | 5.00 to 6.00
CCC(=O)N1CCC2(CCc3cc(-c4ccc5cccnc5c4Cl)ccc3O2)CC1 [Example 9, 1-[6-(8-chloro-7-quinolyl)spiro[chromane-2,4′-piperidine]-1′-yl]propan-1-one] | 7.00 to 9.00
Cc1nccc2cc(-c3ccc4c(c3)CCC3(CCN(C(=O)NOC(C)C)CC3)O4)ccc12 [Example 180, N-Isopropoxy-6-(1-methyl-6-isoquinolyl)spiro[chromane-2,4′-piperidine]-1′-carboxamide] | 7.00 to 9.00
CONC(=O)N1CCC2(CCc3cc(-c4ccc5cccnc5c4C)ccc3O2)CC1 [Example 120, N-Methoxy-6-(8-methyl-7-quinolyl)spiro[chromane-2,4′-piperidine]-1′-carboxamide] | 7.00 to 9.00
Cc1c(-c2ccc3c(c2)CCC2(CCN(C(N)=O)CC2)O3)ccc2ccnn12 [Example 114, 6-(7-Methylpyrazolo[1,5-a]pyridin-6-yl)spiro[chromane-2,4′-piperidine]-1′-carboxamide] | 7.00 to 9.00
CCONC(=O)N1CCC2(CCc3cc(-c4ccc5ccnn5c4C)ccc3O2)CC1 [Example 115, N-Ethoxy-6-(7-methylpyrazolo[1,5-a]pyridin-6-yl)spiro[chromane-2,4′-piperidine]-1′-carboxamide] | 7.00 to 9.00
